pIC50: −log10 of the molar value.
Columns and labels:
Type in all cases: cell-based
[1] = system: breast cancer cell line MCF-7; test: Cell viability assay (MTS), MCF-7; conditions: Homo sapiens, MCF7; 72 h incubation
Method: (§1) In an embodiment, the cell growth inhibition and IC50 values of the synthesised and isolated chromene-based compounds were determined as part of the evaluation of the antiproliferative activity of the isolated agents. A complete study on the structure-activity relationship was performed for all the synthesised compounds. The antiproliferative activity against MCF-7 breast cancer cell lines were analysed. […] The non-neoplastic cell line MCF-10A was also used to determine the selectivity of the compounds for the tumour cells. For compounds with an IC50 value (concentration required to reduce cell viability by 50%) higher than 20 μM, the IC50 value was not determined. Selectivity index (SI) was calculated in order to evaluate the cytotoxicity of the tested compounds.
(§2) In an embodiment, three human breast cancer cell lines Hs578T, MDA-MB-468 and MCF-7, and a normal breast cell line MCF-10A, were obtained from ATCC (American Type Culture Collection). The cancer cell lines were cultured in Dulbecco's modified Eagle medium, 4.5 g/l glucose (DMEM, Gibco) supplemented with 10% heating inactivated Fetal Bovine Serum (FBS, Gibco) and 1% antibiotic solution (Penicillin-Streptomycin, Gibco). The normal cell line was cultured in Dulbecco's Modified Eagle Medium: Nutrient Mixture F-12 (DMEM/F12, Gibco) supplemented with 5% heating inactivated FBS (Gibco), 1% antibiotic solution (Penicillin-Streptomycin, Gibco), 1% steroid hormone (Hydrocortisone, Sigma-Aldrich), 0.1% peptide hormone (Insulin, Sigma-Aldrich) and 0.01% protein complex (Cholera Toxin, Gibco). Two distinct human acute myeloid leukemia (AML) cell lines, HL-60 (FAB M2) and KG-1 (erythroleukemia-FAB M6), and one human lymphoblastic leukemia (ALL) cell line, Jurkat (T cell type), were also used. These three cell lines were obtained from German Collection of Microorganisms and Cell cultures (DMSZ®, Deutsche Sammlung von Mikroorganismen and Zellkulturen in German). Cells were cultured in RPMI 1640 medium (Biochrom®-Merck Millipore) supplemented with 10% heating inactivated FBS (Biochrom®-Merck Millipore) and 1% antibiotic/antimitotic mixture (Invitrogen®). Three human glioblastoma (GBM) cell line models, two established and commercially available cell lines (U87MG and GAMG, kind gift from Rui M. Reis) and one primary GBM culture (GLIB) were also used. GBM cells were cultures in DMEM (Biochrom-Merck Millipore), all supplemented with 10% FBS. The Renal cell carcinoma cell lines A498, 786-O, Caki-2 and HK2 were obtained from ATCC. The cancer cell line A498 was cultured in MEM medium (Biochrom®-Merck Millipore), 786-O was cultured in RPMI 1640 medium (Biochrom®-Merck Millipore), Caki-2 was cultured in Mc Coys medium (Biochrom®-Merck Millipore) and HK2 was cultured in RPMI 1640 medium (Biochrom®-Merck Millipore). All the media were supplemented with 10% heat inactivated FBS (Biochrom®-Merck Millipore) and 1% antibiotic/antimitotic mixture (Invitrogen®). All cells were grown in a humidified incubator at 37° C. and 5% CO2. For all assays, DMSO (Dimethyl Sulfoxide, Sigma-Aldrich) controls were used.
(§3) In an embodiment, cell viability assays were performed. MCF-7, Hs578T and MCF-10A cells were plated in triplicate in 96-multiwell culture plates, at 3000 cells […], or 5000 cells […] for MDA-MB-468 (100 μL/well). The cells were then allowed to adhere in complete medium, over a period of 18-20 hours. Cells were subsequently treated with 7 different concentrations (from 0.1 to 40 μM or 5 to 60 μM) of compounds or control in fresh medium. HL-60, KG-1 and Jurkat cell lines were plated in 96-multiwell culture plates at 50.000 cells/100 μL per well and treated with different concentrations (from 0.001 to 2 μM) of the compounds described (or control). Cells were plated, in triplicate, at an initial density of 2000 cells/well for GAMG, 4000 cells/well for GL18 and 6000 cells/well for U87MG, in 96-well plates, and allowed to adhere for 18-20 hours. […]

[2] = system: non-neoplastic cell line MCF-10A; test: Cell viability assay (MTS), MCF-10A; conditions: Homo sapiens, 72 h incubation
Method: as §1, §2, §3

[3] = system: TNBC cell line MDA-MB-231; test: Cell viability assay, MDA-MB-231; conditions: Homo sapiens
TNBC cell line Hs578t = test: Cell viability assay (MTS), Hs578t; conditions: Homo sapiens, Hs-578T; 72 h incubation
Source text: In an embodiment, for a comparison study, monomers and respective dimers were selected and further evaluated in Hs578t and MDA-MB-468 breast cell lines. […] These cell lines correspond to the basal-like subtype of breast cancer, included in the known triple negative subtype, since they are negative for Estrogen receptor (ER), progesterone receptor (PR) and Human epidermal growth factor receptor 2 (HER2) molecular markers. The clinical behaviour of these breast cancer subtype is very aggressive and there is still no specific molecular therapy available.
as §2
(§4) In an embodiment, cell viability assays were performed. MCF-7, Hs578T and MCF-10A cells were plated in triplicate in 96-multiwell culture plates, at 3000 cells […], or 5000 cells […] for MDA-MB-468 (100 μL/well). The cells were then allowed to adhere in complete medium, over a period of 18-20 hours. Cells were subsequently treated with 7 different concentrations (from 0.1 to 40 μM or 5 to 60 μM) of compounds or control in fresh medium. HL-60, KG-1 and Jurkat cell lines were plated in 96-multiwell culture plates at 50.000 cells/100 μL per well and treated with different concentrations (from 0.001 to 2 μM) of the compounds described (or control). Cells were plated, in triplicate, at an initial density of 2000 cells/well for GAMG, 4000 cells/well for GL18 and 6000 cells/well for U87MG, in 96-well plates, and allowed to adhere for 18-20 hours. Cells were then treated with different concentrations of the compounds (0.005 to 100 μM) or with control. […]

[4] = system: renal carcinoma cell lines; test: First screen against renal carcinoma cell lines; conditions: IC50 determination not pursued
Source text: (§5) In an embodiment, the antiproliferative activity of the compounds was further determined against renal carcinoma cell lines and non-neoplastic kidney cell line.

[5] = system: renal carcinoma cell line 786-O; test: Cell viability (sulforhodamine B), 786-O; conditions: Homo sapiens, 786-0; Table 5
Method: as §5, §2
as §4, with “control. A498 and 786-O cells were plated at 2000 cells per mL, Caki-2 cells were plated at 3000 cells per mL and HK2 cells were plated at 2000 cells per mL in triplicate, in 96-multiwell culture plates (100 μL/well), and allowed to adhere over a period of 18-20 hours in complete medium. The cells were then treated with 7 different concentrations (from 0.1 to 40 μM or 5 to 60 μM) of compounds or control in fresh medium.” for “control.”

[6] = system: renal carcinoma cell line A498; test: Cell viability (sulforhodamine B), A498; conditions: Homo sapiens, Table 5
Method: as §5, §2
as §4, with “control. A498 and 786-O cells were plated at 2000 cells per mL, Caki-2 cells were plated at 3000 cells per mL and HK2 cells were plated at 2000 cells per mL in triplicate, in 96-multiwell culture plates (100 μL/well), and allowed to adhere over a period of 18-20 hours in complete medium. The cells were then treated with 7 different concentrations (from 0.1 to 40 μM or 5 to 60 μM) of compounds or control in fresh medium.” for “control.”

[7] = system: non-neoplastic cell line (HK2); test: Cell viability, HK2; conditions: Table 5; read-out: IC50 HK2
Method: as §5, §2
as §4, with “control. A498 and 786-O cells were plated at 2000 cells per mL, Caki-2 cells were plated at 3000 cells per mL and HK2 cells were plated at 2000 cells per mL in triplicate, in 96-multiwell culture plates (100 μL/well), and allowed to adhere over a period of 18-20 hours in complete medium. The cells were then treated with 7 different concentrations (from 0.1 to 40 μM or 5 to 60 μM) of compounds or control in fresh medium.” for “control.”

[8] = system: renal carcinoma cell line Caki-2; test: Cell viability (sulforhodamine B), Caki-2; conditions: Homo sapiens, Table 5
Method: as §5, §2
as §4, with “control. A498 and 786-O cells were plated at 2000 cells per mL, Caki-2 cells were plated at 3000 cells per mL and HK2 cells were plated at 2000 cells per mL in triplicate, in 96-multiwell culture plates (100 μL/well), and allowed to adhere over a period of 18-20 hours in complete medium. The cells were then treated with 7 different concentrations (from 0.1 to 40 μM or 5 to 60 μM) of compounds or control in fresh medium.” for “control.”

| Structure (SMILES) | pIC50 [1] | pIC50 [2] | pIC50 [3] | pIC50 (TNBC cell line Hs578t) | biological activity in a first screen [4] | pIC50 [5] | pIC50 [6] | pIC50 [7] | pIC50 [8] |
| --- | --- | --- | --- | --- | --- | --- | --- | --- | --- |
| COc1cccc(-c2nc3c([nH]2)Cc2cccc(OC)c2O3)c1O [Compound M955] | 5.38 | < 4.52 | 4.80 | < 4.70 | did not demonstrate any biological activity |  |  |  |  |
| Oc1ccc(Cl)cc1-c1nc2c([nH]1)Cc1cc(Cl)ccc1O2 [Compound M1143] | < 4.52 |  | < 4.52 | < 4.52 | did not demonstrate any biological activity |  |  |  |  |
| Oc1ccccc1-c1nc2c([nH]1)Cc1ccccc1O2 [Compound M1159] | 5.43 | < 4.52 | 4.98 |  |  | 5.52 | 4.87 | 5.25 |  |
| COc1ccc2c(c1)Cc1[nH]c(-c3cc(OC)ccc3O)nc1O2 [Compound M1220] | 5.23 | < 4.52 |  | < 4.52 | did not demonstrate any biological activity |  |  |  |  |
| Oc1ccc(Br)cc1-c1nc2c([nH]1)Cc1cc(Br)ccc1O2 [Compound M1221] | < 4.52 |  | < 4.52 |  | did not demonstrate any biological activity |  |  |  |  |
| COc1cccc2c1Oc1nc(-c3cccc(F)c3)[nH]c1C2 [MC349, 2-(3-fluorophenyl)-5-methoxy-3,9-dihydrochromeno[2,3-d]imidazoles] | 6.11 | 5.64 | 5.91 | 6.19 |  | 6.35 | 5.95 | 5.58 | 6.36 |
| COc1cccc2c1Oc1nc(-c3cccc(O)c3)[nH]c1C2 [MC359, 3-(5-methoxy-3,9-dihydrochromeno[2,3-d]imidazol-2-yl)phenol] | 5.55 | 5.18 | 5.57 | 5.46 |  | 5.49 | 5.61 | 5.28 | 5.63 |
| COc1cccc2c1Oc1nc(-c3ccc(Cl)cc3)[nH]c1C2 [MC412, 2-(4-chlorophenyl)-5-methoxy-3,9-dihydrochromeno[2,3-d]imidazoles] | 6.36 | 5.76 | 5.78 | 6.01 |  | 7.49 | 6.54 | 5.79 | 7.41 |
